In PMC10671050, “Alkyl Derivatives of Perylene Photosensitizing Antivirals: Towards Understanding the Influence of Lipophilicity” (International Journal of Molecular Sciences, 2023):
Converted amounts (≈) assume the structure as drawn. “Also recorded” adds a separate entry of the source. Like-named read-outs stand apart in the source and are kept apart here.

Assays:
[1] = Solubilization in 15% DMSO in water; details: for solubility: aqueous with cosolvent or surfactant or cyclodextrin, kinetic from dmso stock
Protocol: To perform this measurement, the compound was dissolved in DMSO and then diluted with water to achieve a solution containing 15% DMSO. The solution was centrifuged, and the resulting supernatant was lyophilized (evaporated) to dryness. Subsequently, the dry residue was dissolved in DMSO, and the concentration of the compound dissolved in DMSO was determined spectrophotometrically.
The mixtures were then centrifuged at 20,000 rcf for 5 min; 500 μL of the supernatant were collected and lyophilized; 76 µL of DMSO were added to the dry residue, and the absorbance was measured at the maximum absorption wavelength for compounds in solutions diluted 200 times with methanol. The data obtained were recalculated according to the law of dilutions and Beer’s law to obtain the initial concentrations of the compounds solubilized in 15% DMSO in water.

[2] = tested on: HSV-1 envelope; assay: HSV-1 envelope interaction studies (intercalation assay); type: cell-based, herpes simplex virus-1; details: 2 and 10 µM, pre-incubation at 37 °C, Vero cells
[3] = tested on: HSV-1, strain MacIntyre; assay: Photodynamic inactivation of HSV-1 (virus treated with compound, plaque assay); type: cell-based, herpes simplex virus-1; details: for EC50: Human alphaherpesvirus 1, 10 min, HSV-1 10^4 PFU/mL, plaque assay
[4] = tested on: HSV-1 virus-cell fusion; assay: HSV-1-based fusion assay; type: cell-based, herpes simplex virus-1; details: for plaque numbers in fusion assay: Vero cells; for plaque size in fusion assay: Vero monolayers in presence of compound
Protocol: In the fusion assay, HSV-1 was attached to Vero cells at 4 °C, but virus–cell fusion was blocked due to the low temperature.
HSV-1 (100 PFU/mL) was then added to the cells and incubated at 4 °C for 2 h. After incubation, the cell monolayers were washed three times with ice-cold PBS to remove un-adsorbed virus, and fresh ice-cold medium containing the tested compounds (0, 0.08, 2, and 10 µM) was added to the cells and incubated for 2 h at 4 °C. After another 2 h incubation at 37 °C, the medium was aspirated, the cells were washed with PBS and fresh medium containing 1.5% carboxymethylcellulose was added to the cells.

[5] = tested on: HSV-1, strain MacIntyre; assay: HSV-1 titer reduction assay in Vero cells; details: 10 µM, 48 h; for viral replication and spread in HSV-1-infected Vero cell culture: inside cell culture (Figure 6C); for anti-HSV-1 activity in Vero cells: viral titer in medium supernatant
[6] = type: physicochemical; details: methanol, DPBF trap, 450–470 nm, relative to riboflavin
[7] = tested on: VSV Indiana strain; assay: microbe, parasite or virus in culture; type: cell-based, vesicular stomatitis Indiana virus; details: Vesicular stomatitis virus, HEK-293T, 1 h, read-out: VSV, EC50
[8] = tested on: Vero cells; assay: Light-induced cytotoxicity (photocytotoxicity) in Vero cells; type: cell-based, African Green Monkey; details: blue light 10 min vs daylight, 0–10 µM, 48 h
Protocol: (§1) Subsequently, cells treated with the compounds were irradiated with LEDs (465–480 nm, 30 mW/cm^2) for 10 min at RT. As a negative control, compound-treated cells were incubated for 10 min in daylight at RT. Then, both the irradiated and non-irradiated cell monolayers were incubated at 37 °C in the dark for 48 h. Subsequently, the cell culture medium was aspirated and the cytotoxicity of the tested perylene derivatives was determined based on cell viability using Cell Counting Kit-8 (Dojindo Molecular Technologies, Munich, Germany) according to the manufacturer’s instructions. Note: all manipulation with samples was performed in daylight (Figure 7K).

[9] = as above; type: cell-based, African Green Monkey; details: African green monkey, Vero cells; blue light 465–480 nm, 10 min, then 48 h; read-out: cell viability of Vero cells after irradiation
Protocol: as §1

[10] = 10 min in daylight, read-out: EC50 (µM) in Daylight
[11] = blue light 465–480 nm, 30 mW/cm^2, 10 min, read-out: EC50 (µM) under Blue Light

| SMILES | solubility in 15% DMSO in water [1] | solubility [1] | plaque formation after pretreatment of HSV-1 [2] | Decrease in EC50 (Fold) [3] | EC50 [3, 10] | EC50 [3, 11] | plaque numbers in fusion assay ([4]; 0.08 µM) | plaque size in fusion assay [4] | plaque numbers in fusion assay ([4]; most pronounced at 2 and 10 µM) | viral replication and spread in HSV-1-infected Vero cell culture [5] | anti-HSV-1 activity in Vero cells [5] | 1O2 Quantum Yield [6] | EC50 [7] | photocytotoxicity to Vero cells [8] | viability at 48 h [9] |
| --- | --- | --- | --- | --- | --- | --- | --- | --- | --- | --- | --- | --- | --- | --- | --- |
| CCCCc1ccc2c3cccc4c(C#Cc5cn([C@H]6C[C@H](O)[C@@H](CO)O6)c(=O)[nH]c5=O)ccc(c5cccc1c52)c43 [Compound 11a, 5-[9(10)-Butylperylen-3-ylethynyl]-deoxy-uridine] | relatively high solubility | 0.51 µM (≈ 0.285 µg/mL) | completely inhibited the ability of the virus to form plaques | 18.6 fold | 1.83 µM | 0.098 µM | plaque numbers were similar to controls | significantly smaller plaques | reduction in plaque numbers | did not suppress viral replication and spread | completely inhibited viral replication; also recorded: higher antiviral potency compared to acyclovir | 23.6 ± 1.4% | 500 ± 100 nM | – | – |
| CCCCc1ccc2c3cccc4c(C#Cc5cn([C@@H]6O[C@H](CO)[C@@H](O)[C@@H]6O)c(=O)[nH]c5=O)ccc(c5cccc1c52)c43 [Compound 9a, 5-[9(10)-Butylperylen-3-ylethynyl]-arabino-uridine] | relatively high solubility | 0.6 µM (≈ 0.345 µg/mL) | completely inhibited the ability of the virus to form plaques | 21.9 fold | 2.23 µM | 0.102 µM | plaque numbers were similar to controls | significantly smaller plaques | reduction in plaque numbers | did not suppress viral replication and spread | completely inhibited viral replication; also recorded: higher antiviral potency compared to acyclovir | 31.9 ± 8.5% | 2000 ± 1800 nM | did not increase the cytotoxicity | 115 to 128% |
